Source: PubChem BioAssay AID236 (DTP/NCI, 2004)
Values joined by “and” are separate entries in the source; they are usually repeats but may differ in a detail not shown here. Equal entries are not always repeated. Toxic doses and inconclusive results are not listed.

System: AK4 lymphoid leukemia ip, C3AKF1 mice, survival
Test: NCI In Vivo Anticancer Drug Screen. Data for tumor model AK4 Lymphoid Leukemia (intraperitoneal) in C3AKF1 (CHKRF1) mice
Conditions: endpoint: median survival time, higher = longer survival
Procedure: The antitumor activity of compounds was measured in mice bearing transplantable tumors. Survival or tumor size were measured and the results are expressed as the measurement made in the treated group (T) divided by the measurement made in the vehicle treated control group (C). The tumor model used in this assay is AK4 Lymphoid Leukemia (intraperitoneal) in C3AKF1 (CHKRF1) mice

[1] = dose: 6.25 mg/kg/injection, schedule: Q01DX010 (ip), vehicle: saline
[2] = dose: 12.5 mg/kg/injection, schedule: Q01DX010 (ip), vehicle: saline
[3] = dose: 25.0 mg/kg/injection, schedule: Q01DX010 (ip), vehicle: saline
[4] = dose: 50.0 mg/kg/injection, schedule: Q01DX010 (ip), vehicle: saline
[5] = dose: 3.13 mg/kg/injection, schedule: Q01DX010 (ip), vehicle: saline
[6] = dose: 20.0 mg/kg/injection, schedule: Q01DX010 (ip), vehicle: saline
[7] = dose: 2.0 mg/kg/injection, schedule: Q01DX010 (ip), vehicle: saline
[8] = dose: 4.0 mg/kg/injection, schedule: Q01DX010 (ip), vehicle: saline

Which results are given for `S=c1nc[nH]c2nc[nH]c12`?
T/C (dose: 5.0 mg/kg/injection, schedule: Q01DX010 (ip), vehicle: alkali diluted with saline): 100 % of control; T/C (dose: 5.0 mg/kg/injection, schedule: Q01DX Z (ip), vehicle: saline): 93 % of control; T/C (dose: 10.0 mg/kg/injection, schedule: Q01DX010 (ip), vehicle: alkali diluted with saline): 95 % of control and 118 % of control; T/C (dose: 10.0 mg/kg/injection, schedule: Q01DX Z (ip), vehicle: saline): 93 % of control and 96 % of control; T/C (dose: 20.0 mg/kg/injection, schedule: Q01DX010 (ip), vehicle: alkali diluted with saline): 100 % of control and 112 % of control; T/C (dose: 20.0 mg/kg/injection, schedule: Q01DX Z (ip), vehicle: saline): 90 % of control and 106 % of control; T/C (dose: 40.0 mg/kg/injection, schedule: Q01DX010 (ip), vehicle: alkali diluted with saline): 93 % of control and 110 % of control; T/C (dose: 40.0 mg/kg/injection, schedule: Q01DX Z (ip), vehicle: saline): 93 % of control and 96 % of control; T/C (dose: 80.0 mg/kg/injection, schedule: Q01DX010 (ip), vehicle: alkali diluted with saline): 100 % of control; T/C (dose: 80.0 mg/kg/injection, schedule: Q01DX Z (ip), vehicle: saline): 93 % of control and 96 % of control

Which T/C [1] does the source give for `CS(=O)(=O)OCCCCOS(C)(=O)=O` here?
The T/C was 87 % of control and 100 % of control.

And the T/C [2]?
The T/C was 100 % of control and 87 % of control.

And the T/C [3]?
The T/C was 100 % of control.

And the T/C [4]?
The T/C was 87 % of control and 100 % of control.

For `CCOC(N)=O`, which T/C (dose: 125.0 mg/kg/injection, schedule: Q01DX010 (ip), vehicle: saline) is on record?
Its T/C is 100 % of control and 121 % of control.

What about the T/C (dose: 250.0 mg/kg/injection, schedule: Q01DX010 (ip), vehicle: saline) of the same compound?
Its T/C is 100 % of control and 106 % of control.

What about the T/C (dose: 1000.0 mg/kg/injection, schedule: Q01DX010 (ip), vehicle: saline) of the same compound?
Its T/C is 87 % of control.

How did the T/C (dose: 0.78 mg/kg/injection, schedule: Q01DX010 (ip), vehicle: saline) turn out when `[I][Hg][CH2]C1COC([CH2][Hg][I])CO1` (stereo unspecified) was run?
The T/C was 106 % of control.

And the T/C (dose: 1.56 mg/kg/injection, schedule: Q01DX010 (ip), vehicle: saline)?
The T/C was 100 % of control.

What about the T/C [5] of the same compound?
Its T/C is 100 % of control.

And the T/C [1]?
Its T/C is 100 % of control.

What about the T/C [2] of the same compound?
The T/C was 88 % of control.

For `O=c1[nH]cc(F)c(=O)[nH]1`, which T/C [6] is on record?
Its T/C is 162 % of control.

And the T/C (dose: 40.0 mg/kg/injection, schedule: Q01DX010 (ip), vehicle: saline)?
Its T/C is 112 % of control.

What about the T/C (dose: 80.0 mg/kg/injection, schedule: Q01DX010 (ip), vehicle: saline) of the same compound?
The T/C was 93 % of control.

Which results are given for `NC(Cc1c[nH]c2ccc(N(CCCl)CCCl)cc12)C(=O)O` (stereo unspecified)?
T/C [7]: 156 % of control; T/C [8]: 175 % of control

Which results are given for `Nc1nc(F)nc2c1ncn2C1OC(CO)C(O)C1O` (stereo unspecified)?
T/C (dose: 0.5 mg/kg/injection, schedule: Q01DX010 (ip), vehicle: saline): 105 % of control; T/C (dose: 1.0 mg/kg/injection, schedule: Q01DX010 (ip), vehicle: saline): 100 % of control; T/C [7]: 100 % of control and 111 % of control; T/C [8]: 100 % of control and 105 % of control

For `O=[n+]1c2c(n([O-])c3ccccc31)-c1cccc3cccc-2c13`, which T/C [5] is on record?
The T/C was 100 % of control.

And the T/C [1]?
Its T/C is 100 % of control.

And the T/C [2]?
The T/C was 100 % of control.

And the T/C [3]?
Its T/C is 88 % of control and 94 % of control.

What about the T/C [4] of the same compound?
Its T/C is 88 % of control.

What about the T/C (dose: 100.0 mg/kg/injection, schedule: Q01DX010 (ip), vehicle: saline) of the same compound?
Its T/C is 88 % of control.

With `CC[n+]1c(-c2ccccc2)c2cc(N)ccc2c2ccc(N)cc21` as the compound, how does the T/C (dose: 1.25 mg/kg/injection, schedule: Q01DX010 (ip), vehicle: saline) read?
Its T/C is 100 % of control.

What about the T/C (dose: 2.5 mg/kg/injection, schedule: Q01DX010 (ip), vehicle: saline) of the same compound?
The T/C was 100 % of control.

What about the T/C (dose: 5.0 mg/kg/injection, schedule: Q01DX010 (ip), vehicle: saline) of the same compound?
Its T/C is 100 % of control.

What about the T/C (dose: 10.0 mg/kg/injection, schedule: Q01DX010 (ip), vehicle: saline) of the same compound?
Its T/C is 100 % of control and 112 % of control.

And the T/C [6]?
The T/C was 112 % of control.

With `CN[C@H]1CCc2cc(OC)c(OC)c(OC)c2-c2ccc(OC)c(=O)cc21` as the compound, how does the T/C (dose: 0.63 mg/kg/injection, schedule: Q01DX010 (ip), vehicle: other) read?
Its T/C is 95 % of control and 100 % of control.

And the T/C (dose: 1.25 mg/kg/injection, schedule: Q01DX010 (ip), vehicle: other)?
The T/C was 95 % of control and 100 % of control.

What about the T/C (dose: 2.5 mg/kg/injection, schedule: Q01DX010 (ip), vehicle: other) of the same compound?
The T/C was 90 % of control and 100 % of control.

And the T/C (dose: 5.0 mg/kg/injection, schedule: Q01DX010 (ip), vehicle: other)?
Its T/C is 100 % of control and 104 % of control.
